In PubChem BioAssay (NCI):
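Grown in 96-well plates, cells were treated for 48 hours with each compound at five concentrations. Insufficient inhibition: endpoint recorded as highest concentration tested. TGI denotes the concentration required for complete inhibition of growth.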

Tests used:
Test in all cases: NCI anticancer screen, dose series, 48 h
SK-MEL-2 melanoma = tested on: SK-MEL-2 melanoma
KM20L2 colon = tested on: KM20L2 colon
RXF 393 renal = tested on: RXF 393 renal
NCI-H460 lung = tested on: NCI-H460 lung
HT29 colon = tested on: HT29 colon
OVCAR-3 ovarian = tested on: OVCAR-3 ovarian
MOLT-4 leukemia = tested on: MOLT-4 leukemia
NCI-H226 lung = tested on: NCI-H226 lung
SNB-75 CNS = tested on: SNB-75 CNS
OVCAR-4 ovarian = tested on: OVCAR-4 ovarian
MALME-3M melanoma = tested on: MALME-3M melanoma
SK-MEL-5 melanoma = tested on: SK-MEL-5 melanoma
SNB-19 CNS = tested on: SNB-19 CNS
CAKI-1 renal = tested on: CAKI-1 renal
SK-OV-3 ovarian = tested on: SK-OV-3 ovarian
UO-31 renal = tested on: UO-31 renal
HL-60(TB) leukemia = tested on: HL-60(TB) leukemia
EKVX NSCLC = tested on: EKVX NSCLC
SF-268 CNS = tested on: SF-268 CNS
COLO 205 colon = tested on: COLO 205 colon
HOP-62 NSCLC = tested on: HOP-62 NSCLC
NCI-H23 lung = tested on: NCI-H23 lung
SF-295 CNS = tested on: SF-295 CNS
UACC-62 melanoma = tested on: UACC-62 melanoma
HCC-2998 colon = tested on: HCC-2998 colon
K-562 leukemia = tested on: K-562 leukemia
OVCAR-5 ovarian = tested on: OVCAR-5 ovarian
SNB-78 CNS = tested on: SNB-78 CNS
KM12 colon = tested on: KM12 colon
HCT-15 colon = tested on: HCT-15 colon
UACC-257 melanoma = tested on: UACC-257 melanoma
DLD-1 colon = tested on: DLD-1 colon
HCT-116 colon = tested on: HCT-116 colon
DMS 273 small cell lung = tested on: DMS 273 small cell lung
HOP-92 NSCLC = tested on: HOP-92 NSCLC
U251 CNS = tested on: U251 CNS
M14 melanoma = tested on: M14 melanoma
SF-539 CNS = tested on: SF-539 CNS
TK-10 renal = tested on: TK-10 renal
LOX IMVI melanoma = tested on: LOX IMVI melanoma
XF 498 CNS = tested on: XF 498 CNS
NCI-H522 lung = tested on: NCI-H522 lung
SK-MEL-28 melanoma = tested on: SK-MEL-28 melanoma
SW-620 colon = tested on: SW-620 colon
786-0 renal = tested on: 786-0 renal
M19-MEL melanoma = tested on: M19-MEL melanoma
RPMI-8226 leukemia = tested on: RPMI-8226 leukemia
A549 NSCLC = tested on: A549 NSCLC
CCRF-CEM leukemia = tested on: CCRF-CEM leukemia
SR leukemia = tested on: SR leukemia
IGROV1 ovarian = tested on: IGROV1 ovarian
SN12C renal = tested on: SN12C renal
A498 renal = tested on: A498 renal
LXFL 529 NSCLC = tested on: LXFL 529 NSCLC
DMS 114 small cell lung = tested on: DMS 114 small cell lung
OVCAR-8 ovarian = tested on: OVCAR-8 ovarian
HOP-18 NSCLC = tested on: HOP-18 NSCLC
ACHN renal = tested on: ACHN renal

Measured: TGI

O=c1[nH][nH]c(=O)[nH]1
> 100 µM: SK-MEL-2 melanoma | KM20L2 colon | RXF 393 renal | NCI-H460 lung | HT29 colon | OVCAR-3 ovarian | MOLT-4 leukemia | NCI-H226 lung | SNB-75 CNS | OVCAR-4 ovarian | MALME-3M melanoma | SK-MEL-5 melanoma | SNB-19 CNS | CAKI-1 renal | SK-OV-3 ovarian | UO-31 renal | HL-60(TB) leukemia | EKVX NSCLC | SF-268 CNS | COLO 205 colon | HOP-62 NSCLC | NCI-H23 lung | SF-295 CNS | UACC-62 melanoma | HCC-2998 colon | K-562 leukemia | OVCAR-5 ovarian | SNB-78 CNS | KM12 colon | HCT-15 colon | UACC-257 melanoma | DLD-1 colon | HCT-116 colon | DMS 273 small cell lung | HOP-92 NSCLC | U251 CNS | M14 melanoma | SF-539 CNS | TK-10 renal | LOX IMVI melanoma | XF 498 CNS | NCI-H522 lung | SK-MEL-28 melanoma | SW-620 colon | 786-0 renal | M19-MEL melanoma | RPMI-8226 leukemia | A549 NSCLC | CCRF-CEM leukemia | SR leukemia | IGROV1 ovarian

COc1ccc(N(C)CN(C)c2nc(N(C)C)nc(N(C)C)n2)cc1
> 100 µM: SN12C renal | A498 renal | SK-MEL-2 melanoma | KM20L2 colon | NCI-H460 lung | HT29 colon | OVCAR-3 ovarian | MOLT-4 leukemia | SNB-75 CNS | OVCAR-4 ovarian | MALME-3M melanoma | SK-MEL-5 melanoma | SNB-19 CNS | CAKI-1 renal | LXFL 529 NSCLC | SK-OV-3 ovarian | UO-31 renal | HL-60(TB) leukemia | EKVX NSCLC | SF-268 CNS | COLO 205 colon | HOP-62 NSCLC | NCI-H23 lung | SF-295 CNS | UACC-62 melanoma | K-562 leukemia | OVCAR-5 ovarian | SNB-78 CNS | DMS 114 small cell lung | KM12 colon | OVCAR-8 ovarian | HCT-15 colon | UACC-257 melanoma | DLD-1 colon | HOP-18 NSCLC | HCT-116 colon | DMS 273 small cell lung | HOP-92 NSCLC | U251 CNS | M14 melanoma | SF-539 CNS | TK-10 renal | LOX IMVI melanoma | NCI-H522 lung | SK-MEL-28 melanoma | ACHN renal | SW-620 colon | 786-0 renal | M19-MEL melanoma | RPMI-8226 leukemia | A549 NSCLC | CCRF-CEM leukemia | SR leukemia | IGROV1 ovarian
